Source: the supplement of paper PMC10307832

Legend:
Assay in all cases: relative viability (nuclei count vs DMSO), 5 days (fraction); higher = more cells survive
Crenolanib + Trametinib = compound: CC1(COc2ccc3c(c2)ncn3-c2ccc3cccc(N4CCC(N)CC4)c3n2)COC1 [Crenolanib] + CC(=O)Nc1cccc(-n2c(=O)n(C3CC3)c(=O)c3c(Nc4ccc(I)cc4F)n(C)c(=O)c(C)c32)c1 [Trametinib] (partner 0.02 µM)
Procedure, shortened: (§1)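 Five library-drug doses in √10 steps were combined with a fixed anchor-drug dose, or a single drug was given alone, by pin tool to lung cancer cell lines in 1536-well plates the day after seeding. Nuclei were stained and counted after 5 days. Relative viability is the nuclei count in treated wells over that in vehicle wells, taken as the median of duplicate plates.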

Crenolanib + Pictilisib = compound: CC1(COc2ccc3c(c2)ncn3-c2ccc3cccc(N4CCC(N)CC4)c3n2)COC1 [Crenolanib] + CS(=O)(=O)N1CCN(Cc2cc3nc(-c4cccc5[nH]ncc45)nc(N4CCOCC4)c3s2)CC1 [Pictilisib] (partner 1 µM)
Procedure, shortened: as §1

Crenolanib + AZD7762 = compound: CC1(COc2ccc3c(c2)ncn3-c2ccc3cccc(N4CCC(N)CC4)c3n2)COC1 [Crenolanib] + NC(=O)Nc1cc(-c2cccc(F)c2)sc1C(=O)N[C@H]1CCCNC1 [AZD7762] (partner 0.2 µM)
Procedure, shortened: as §1

Tivantinib + Phenformin = compound: O=C1NC(=O)[C@@H](c2cn3c4c(cccc24)CCC3)[C@@H]1c1c[nH]c2ccccc12 [Tivantinib] + N=C(N)NC(=N)NCCc1ccccc1 [Phenformin] (partner 250 µM)
Procedure, shortened: as §1

| Cell Line | relative viability (Crenolanib + Trametinib; first compound 0.01 µM) | relative viability (Crenolanib + Trametinib; first compound 0.03162 µM) | relative viability (Crenolanib + Trametinib; first compound 0.1 µM) | relative viability (Crenolanib + Trametinib; first compound 0.3162 µM) | relative viability (Crenolanib + Trametinib; first compound 1 µM) | relative viability (Crenolanib + Pictilisib; first compound 0.01 µM) | relative viability (Crenolanib + Pictilisib; first compound 0.03162 µM) | relative viability (Crenolanib + Pictilisib; first compound 0.1 µM) | relative viability (Crenolanib + Pictilisib; first compound 0.3162 µM) | relative viability (Crenolanib + Pictilisib; first compound 1 µM) | relative viability (Crenolanib + AZD7762; first compound 0.01 µM) | relative viability (Crenolanib + AZD7762; first compound 0.03162 µM) | relative viability (Crenolanib + AZD7762; first compound 0.1 µM) | relative viability (Crenolanib + AZD7762; first compound 0.3162 µM) | relative viability (Crenolanib + AZD7762; first compound 1 µM) | relative viability (Tivantinib + Phenformin; first compound 0.01 µM) | relative viability (Tivantinib + Phenformin; first compound 0.03162 µM) | relative viability (Tivantinib + Phenformin; first compound 0.1 µM) | relative viability (Tivantinib + Phenformin; first compound 0.3162 µM) |
| --- | --- | --- | --- | --- | --- | --- | --- | --- | --- | --- | --- | --- | --- | --- | --- | --- | --- | --- | --- |
| NCI-H1395 | 1.05 | 1.03 | 0.976 | 1 | 1.14 | 0.655 | 0.562 | 0.708 | 0.789 | 0.553 | 0.374 | 0.392 | 0.412 | 0.457 | 0.473 | 0.468 | 0.513 | 0.45 | 0.437 |
| 201T | 0.703 | 0.703 | 0.688 | 0.722 | 0.745 | 0.724 | 0.704 | 0.695 | 0.689 | 0.634 | 0.686 | 0.633 | 0.605 | 0.739 | 0.694 | 0.421 | 0.458 | 0.415 | 0.451 |
| NCI-H2170 | 0.945 | 0.93 | 0.928 | 0.9 | 0.927 | 0.376 | 0.296 | 0.32 | 0.272 | 0.305 | 0.941 | 0.852 | 0.897 | 0.934 | 0.852 | 0.429 | 0.437 | 0.401 | – |
| NCI-H727 | 0.437 | 0.387 | 0.359 | 0.382 | 0.447 | 0.491 | 0.634 | 0.342 | 0.473 | 0.418 | 0.702 | 0.445 | 0.546 | 0.671 | 0.587 | 0.636 | 0.409 | 0.393 | 0.584 |
| HCC-366 | 0.367 | 0.374 | 0.3 | 0.422 | 0.345 | 0.182 | 0.164 | 0.132 | 0.143 | 0.137 | 0.689 | 0.327 | 0.333 | 0.363 | 0.474 | 0.63 | 0.637 | 0.598 | 0.635 |
| LCLC-97TM1 | 0.215 | 0.176 | 0.186 | 0.188 | 0.199 | 0.162 | 0.245 | 0.176 | 0.245 | 0.118 | 0.316 | 0.219 | 0.41 | 0.561 | 0.277 | 0.456 | 0.496 | 0.453 | 0.388 |
| NCI-H460 | 0.13 | 0.169 | 0.151 | 0.17 | 0.133 | 0.379 | 0.306 | 0.316 | 0.363 | 0.308 | 0.668 | 0.482 | 0.695 | 0.872 | 0.86 | 0.532 | 0.509 | 0.474 | 0.563 |
| H3255 | 0.646 | 0.612 | 0.639 | 0.754 | 0.627 | 0.461 | 0.475 | 0.479 | 0.559 | 0.496 | 1.05 | 0.761 | 0.907 | 0.835 | 0.797 | 0.315 | 0.357 | 0.355 | – |
